Laboratory results: patent US20140094424A1, “MICROBICIDAL COMPOSITIONS AND METHODS OF PRODUCTION USE THEREOF” (priority 2011, published 2014)

Assays:
[1] = system: Pseudomonas putida (K); test: MBC (minimum bactericidal concentration) test in Wash NEXT reagent; type: cell-based
Protocol: (§1) The stock organisms were thawed and subbed prior to beginning the MBC test. Molds were subbed to SDA plates one week before, and the bacteria were subbed to TAT agar plates 24 hours prior to the start of the test. All plates were incubated at 32 degrees C.
(§2) Each bacterial organism was inoculated into 40 ml sterile saline in a centrifuge tube to create a density of MacFarland #1. Two serial dilutions of 1:100 were then made, resulting in 10^−2 and 10^−4 concentrations. Each dilution was vortexed before it was sampled, and sterile Eppendorf pipette tips were used to make each transfer. The 10^−4 dilution was spiral plated to yield the initial inoculum concentration.
(§3) MBC trays were set up with the prepared test reagent. Using a Matrix pipettor, 100 μl aliquots of reagent were distributed into the wells, diluting the amount of preservative from 100% to 10% increments, using unpreserved reagent as the diluent. In one row, 100% non-preserved reagent acted as a positive control and served as a benchmark for a full mat of growth. In well #12H, 100 μl unpreserved reagent was pipetted, and this well was not inoculated with organisms, as it served as the negative control. Once all of the trays were prepared, the prepared bacteria/mold suspensions were poured into the MBC inoculating trays. These were placed onto the reagent trays, and 0.01 ml inoculum was introduced into the 100 μl of reagent in each well.
(§4) This was done by dipping a sterile cotton swab into each well, and absorbing all of the liquid in the well. The swab was rolled onto a TAT agar plate ensuring that the entire swab touches the agar. Plates ware incubated at 32 degrees C. for 48 hours to 7 days, depending on the organism. Observations for growth were performed by a scoring matrix using + for a full mat, +/− for some growth, a numerical value for an actual colony count, and—for no growth.
(§5) Below are tables that contain the data obtained in Example 1. The MBC test is scored by (+) indicating a full grown mat of organisms, equivalent to the organisms in the unpreserved reagent. (+/−) indicates there is some kill evident disturbing that mat or bringing the quantities down to an almost countable level. An actual number is the actual number of colonies growing at that concentration of preservative. (−) indicates no growth found. The MBC trays were stored at room temperature for the entire test.
(§6) The materials and methods and analysis of the MBC test were the same as in Example 1.

[2] = system: Pseudomonas fluorescens (D); test: as above; type: cell-based
Protocol: as §1, §2, §3, §4, §5, §6

[3] = at 72 hours, listed as Na Azide

[N-]=[N+]=[N-] [Sodium Azide, sodium azide]
MBC test growth score ([1]; 10% preservative, 8 hour): + | MBC test growth score ([1]; 10% preservative, 24 hour): + | MBC test growth score ([1]; 10% preservative, 48 hour): + | MBC test growth score ([1]; 10% preservative, 72 hour): + | MBC test growth score ([1]; 20% preservative, 8 hour): + | MBC test growth score ([1]; 20% preservative, 24 hour): + | MBC test growth score ([1]; 20% preservative, 48 hour): + | MBC test growth score ([1]; 20% preservative, 72 hour): + | MBC test growth score ([1]; 30% preservative, 8 hour): + | MBC test growth score ([1]; 30% preservative, 24 hour): + | MBC test growth score ([1]; 30% preservative, 48 hour): + | MBC test growth score ([1]; 30% preservative, 72 hour): + | MBC test growth score ([1]; 40% preservative, 8 hour): + | MBC test growth score ([1]; 40% preservative, 24 hour): + | MBC test growth score ([1]; 40% preservative, 48 hour): + | MBC test growth score ([1]; 40% preservative, 72 hour): + | MBC test growth score ([1]; 50% preservative, 8 hour): + | MBC test growth score ([1]; 50% preservative, 24 hour): + | MBC test growth score ([1]; 50% preservative, 48 hour): + | MBC test growth score ([1]; 50% preservative, 72 hour): + | MBC test growth score ([1]; 60% preservative, 8 hour): + | MBC test growth score ([1]; 60% preservative, 24 hour): + | MBC test growth score ([1]; 60% preservative, 48 hour): + | MBC test growth score ([1]; 60% preservative, 72 hour): + | MBC test growth score ([1]; 70% preservative, 8 hour): + | MBC test growth score ([1]; 70% preservative, 24 hour): + | MBC test growth score ([1]; 70% preservative, 48 hour): + | MBC test growth score ([1]; 70% preservative, 72 hour): + | MBC test growth score ([1]; 80% preservative, 8 hour): + | MBC test growth score ([1]; 80% preservative, 24 hour): + | MBC test growth score ([1]; 80% preservative, 48 hour): + | MBC test growth score ([1]; 80% preservative, 72 hour): + | MBC test growth score ([1]; 90% preservative, 8 hour): + | MBC test growth score ([1]; 90% preservative, 24 hour): + | MBC test growth score ([1]; 90% preservative, 48 hour): + | MBC test growth score ([1]; 90% preservative, 72 hour): + | MBC test growth score ([1]; 100% preservative, 8 hour): + | MBC test growth score ([1]; 100% preservative, 24 hour): + | MBC test growth score ([1]; 100% preservative, 48 hour): + | MBC test growth score ([1]; 100% preservative, 72 hour): + | total kill at % preservative (MBC) [1, 3]: No kill @ 100% | MBC test growth score ([2]; 10% preservative, 8 hour): + | MBC test growth score ([2]; 10% preservative, 24 hour): + | MBC test growth score ([2]; 10% preservative, 48 hour): + | MBC test growth score ([2]; 10% preservative, 72 hour): + | MBC test growth score ([2]; 20% preservative, 8 hour): + | MBC test growth score ([2]; 20% preservative, 24 hour): + | MBC test growth score ([2]; 20% preservative, 48 hour): + | MBC test growth score ([2]; 20% preservative, 72 hour): + | MBC test growth score ([2]; 30% preservative, 8 hour): + | MBC test growth score ([2]; 30% preservative, 24 hour): + | MBC test growth score ([2]; 30% preservative, 48 hour): + | MBC test growth score ([2]; 30% preservative, 72 hour): + | MBC test growth score ([2]; 40% preservative, 8 hour): + | MBC test growth score ([2]; 40% preservative, 24 hour): + | MBC test growth score ([2]; 40% preservative, 48 hour): + | MBC test growth score ([2]; 40% preservative, 72 hour): + | MBC test growth score ([2]; 50% preservative, 8 hour): + | MBC test growth score ([2]; 50% preservative, 24 hour): + | MBC test growth score ([2]; 50% preservative, 48 hour): + | MBC test growth score ([2]; 50% preservative, 72 hour): + | MBC test growth score ([2]; 60% preservative, 8 hour): + | MBC test growth score ([2]; 60% preservative, 24 hour): + | MBC test growth score ([2]; 60% preservative, 48 hour): + | MBC test growth score ([2]; 60% preservative, 72 hour): + | MBC test growth score ([2]; 70% preservative, 8 hour): + | MBC test growth score ([2]; 70% preservative, 24 hour): + | MBC test growth score ([2]; 70% preservative, 48 hour): + | MBC test growth score ([2]; 70% preservative, 72 hour): + | MBC test growth score ([2]; 80% preservative, 8 hour): + | MBC test growth score ([2]; 80% preservative, 24 hour): + | MBC test growth score ([2]; 80% preservative, 48 hour): + | MBC test growth score ([2]; 80% preservative, 72 hour): + | MBC test growth score ([2]; 90% preservative, 8 hour): + | MBC test growth score ([2]; 90% preservative, 24 hour): + | MBC test growth score ([2]; 90% preservative, 48 hour): + | MBC test growth score ([2]; 90% preservative, 72 hour): + | MBC test growth score ([2]; 100% preservative, 8 hour): + | MBC test growth score ([2]; 100% preservative, 24 hour): + | MBC test growth score ([2]; 100% preservative, 48 hour): + | MBC test growth score ([2]; 100% preservative, 72 hour): + | total kill at % preservative (MBC) [2, 3]: No kill @ 100%
